Consider four compounds from US10676747B2, “Methods for improving cognitive function via modulation of quinone reductase 2” (Carmel-Haifa University Economic Corp. Ltd., priority 2014, dated 2020).

Molecules are shown by their SMILES.

The target in one assay is T1, QR2 (Homo sapiens, UniProt P16083).
T1 sequence (P16083 1-231): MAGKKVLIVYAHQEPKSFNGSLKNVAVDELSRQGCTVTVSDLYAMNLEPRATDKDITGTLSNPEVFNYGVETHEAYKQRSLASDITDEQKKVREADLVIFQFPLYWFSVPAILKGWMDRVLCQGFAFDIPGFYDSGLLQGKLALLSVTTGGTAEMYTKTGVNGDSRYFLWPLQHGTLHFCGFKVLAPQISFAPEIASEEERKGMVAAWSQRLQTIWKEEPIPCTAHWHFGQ
As to conditions: literature statement; cited from earlier work.

Assay [1] deals with rats. The assay is described as follows: LI-CTA protocol: positive taste memory after QR2 inhibitor injection. It is filed as in vivo, rat. As to conditions: n=8; for Aversion index (AI): 0.1% saccharin, inhibitor 10 mg/kg i.p. one hour before pre-exposure, choice test three days after LiCl, mean+/-SEM; for AI compared with vehicle-injected groups (CTA and LI-CTA): Fisher's LSD post-hoc test. On the procedure:
(§1) Subjects—Adult male Wistar Hola rats (Harlan Laboratories, Jerusalem) within a weight range of 200-300 gr (corresponding to an age of 8 to 12 weeks) were used for this study. They were maintained on a 12 hour light/dark cycle and all experiments were carried out during the light cycle. Additionally, the rats had ad libtum access to food and water unless otherwise indicated. The procedures were performed in strict accordance with the University of Haifa regulations and the US National Institutes of Health guidelines (NIH publication number 8023).
(§2) The vehicle—In all of the experiments in which we utilized pharmacological agents they were prepared in physiological saline. Physiological saline was prepared in house by dissolving NaCl in DDW (0.9% w/v). The physiological saline was injected to the controls in all experiments in which the test group(s) was injected with a pharmacological agent. The same volume of the vehicle was injected as the pharmacological agent.
(§3) QR2 inhibitors—We used two inhibitors of QR2 activity, S29434 and S26695, obtained from Pharmacolgie Moleculaire et Cellulaire, Institut de Recherches Servier. The inhibitors were dissolved in dimethyl sulfoxide (DMSO) and then added to physiological saline. The final concentration of dimethyl sulfoxide in the physiological saline was 5%. These inhibitors were injected prior to the learning process intraperitoneally (i.p.) 10 mg/kg.
(§4) Aversion index—the aversion index is calculated by the following equation [(total water ingested/(novel taste liquid ingested+water ingested))*100].
Conditioned Taste Aversion (CTA)—Two groups of rats were deprived from water for a period of 24 hours. This was followed by 3 days of restriction were the rats received two pipettes each filled with 10 ml of water for 20 minutes each day. On the fourth day both groups received two pipettes each filled with 10 ml of an unfamiliar tasting liquid, either saccharine (0.1% w/v) or NaCl (0.3% w/v), for 20 minutes. Forty minutes following the exposure to the novel liquid the rats in the experimental group received an injection of LiCl (prepared in double distilled water (DDW)) (2% bodyweight, intraperitoneally (i.p.)) and those in the control received an injection of physiological saline (2% bodyweight, i.p.).
LI-CTA learning paradigm. This paradigm presents the animal with a novel taste. The animal is then given 48 hours during which it will form a memory of the taste and will consider the taste to be a safe taste. The animal will then be presented with the taste again and then injected with LiCl in order to induce malaise. Normally when an animal is presented with a taste and then has malaise induced (CTA) the animal will form a very high aversion to that taste. […]

In assay [2] the test system is rats. As to the kind of experiment: CTA protocol with NaCl: negative taste memory after QR2 inhibitor injection. In kind it is in vivo, rat. As to conditions: n=8; for AI compared with vehicle-injected group: CTA with NaCl, Fisher's LSD test; for Aversion index (AI): CTA, 0.5% NaCl, LiCl 0.03M, inhibitor 10 mg/kg i.p. one hour before, mean+/-SEM. As for the experimental part:
as §1, §2, §3, §4
Conditioned Taste Aversion (CTA)—Two groups of rats were deprived from water for a period of 24 hours. This was followed by 3 days of restriction were the rats received two pipettes each filled with 10 ml of water for 20 minutes each day. […] Forty minutes following the exposure to the novel liquid the rats in the experimental group received an injection of LiCl (prepared in double distilled water (DDW)) (2% bodyweight, intraperitoneally (i.p.)) and those in the control received an injection of physiological saline (2% bodyweight, i.p.).
M&M—We used three groups in this experiment, all of which were subjected to three days of water restriction. Following the three day water restriction period one group was injected with the vehicle; one group with S29434; one group with S26695. Then, one hour after the injections, all three groups were subjected to the CTA protocol: we gave them access to two pipettes containing 10 ml of 0.5% w/v NaCl each (a novel taste) for 20 minutes (in this experiment NaCl as the novel taste was used since CTA conducted with NaCl leads to a lower AI which prevents a ceiling effect from occurring and allows us to evaluate if the inhibitors generate an increase in learning and therefore a higher AI). […]

Turning to `COc1ccc2[nH]cc(CCNC(C)=O)c2c1` [Melatonin], the QR2 inhibition result at QR2 is listed as “inhibits QR2 activity”.
As for `CNS(=O)(=O)c1ccc2cccc(CCNC(C)=O)c2c1` [S26695, N-[2-(7-methylaminosulfonyl-1-naphthyl)ethyl]acetamide], in the assay with rats [1], the “Aversion index (AI)” value is 68.44+/−4.44; the “AI compared with vehicle-injected groups (CTA and LI-CTA)” value was “significantly lower AI”. In the assay with rats [2], the “AI compared with vehicle-injected group” value is “significantly higher AI” and the “Aversion index (AI)” value is 86.84+/−2.17.
Consider `COc1ccc2c(n1)c(CCNC(=O)c1ccco1)c1n2Cc2cccnc2-1` [S29434, N-[2-(2-methoxy-6h-dipyrido[2,3-α:3,2-e]pyrrolizin-11-yl)ethyl]-2-furamide], for which, in the assay on rats [1], the “Aversion index (AI)” value is 56.16+/−6.15; the “AI compared with vehicle-injected groups (CTA and LI-CTA)” value is listed as “significantly lower AI”. Moreover, in the assay on rats [2], the “AI compared with vehicle-injected group” value is “significantly higher AI” and the Aversion index (AI) came out at 92%.
Consider `Oc1ccc(/C=C/c2cc(O)cc(O)c2)cc1` [resveratrol], for which the QR2 inhibition result on QR2 is “efficiently inhibits QR2”.
